Experiments:
[1] = target: T1, BtMinpp (Bacteroides thetaiotaomicron, UniProt Q89YI8); assay: HPLC of […]-labelled products; phosphatase activity; assay type: biochemical; conditions: 1 mM InsP6; 0.25 μg/ml enzyme; labelled compound
T1 construct: gene BT_4744; N-terminal 6xHis fusion, expressed in Escherichia coli
T1 sequence (Q89YI8 21-425): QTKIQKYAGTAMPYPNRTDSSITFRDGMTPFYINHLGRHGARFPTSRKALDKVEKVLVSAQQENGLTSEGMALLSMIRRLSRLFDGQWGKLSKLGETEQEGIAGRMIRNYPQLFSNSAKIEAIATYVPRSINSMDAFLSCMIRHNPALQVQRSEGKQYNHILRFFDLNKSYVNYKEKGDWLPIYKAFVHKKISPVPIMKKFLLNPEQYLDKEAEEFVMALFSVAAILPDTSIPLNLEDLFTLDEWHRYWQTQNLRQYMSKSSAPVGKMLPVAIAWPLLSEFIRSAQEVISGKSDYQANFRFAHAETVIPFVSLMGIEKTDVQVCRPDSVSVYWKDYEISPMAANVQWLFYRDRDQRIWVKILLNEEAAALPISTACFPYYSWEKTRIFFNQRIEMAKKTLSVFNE

[2] = target: T1, BtMinpp; assay: X-ray crystal structure, […] Å; assay type: binding; conditions: active site; nonhydrolysable InsP6 analog

Row | Compound | HPLC of 32P-labelled products; phosphatase activity [1] | X-ray crystal structure, 2.42 Å [2]
1 | O=P(O)(O)O[C@H]1[C@H](OP(=O)(O)O)[C@@H](OP(=O)(O)O)[C@H](OP(=O)(O)O)[C@@H](OP(=O)(O)O)[C@H]1OP(=O)(O)O [InsP6] | confirmed that this protein has InsP6 phosphatase activity (Figure 1A) | 
2 | O=S(=O)(O)O[C@H]1[C@H](OS(=O)(=O)O)[C@@H](OS(=O)(=O)O)[C@H](OS(=O)(=O)O)[C@@H](OS(=O)(=O)O)[C@H]1OS(=O)(=O)O [InsS6, myo-inositol hexakissulfate] |  | myo-inositol hexakissulfate (InsS6), again bound in the active sites of both molecules

Source: article PMC3969271, “A Bacterial Homolog of a Eukaryotic Inositol Phosphate Signaling Enzyme Mediates Cross-kingdom Dialog in the Mammalian Gut” (Cell Reports, 2014)
